Experimental data published in patent US20110306572A1, “COMBINATION THERAPY FOR THE TREATMENT OF CANCER USING COX-2 INHIBITORS AND DUAL InHIBITORS OF EGFR [ErbB1] AND HER-2 [ErbB2]” (TRAGARA PHARMACEUTICALS, INC, priority 2007, published 2011).

What was measured:
[1] = human, in vivo
[2] = patients taking lapatinib; cited from earlier work

SMILES | gastric or duodenal toxicity [1] | patients with common side effects (rash, diarrhea, fatigue, palmar plantar erythrodysesthesia, nausea and vomiting) [2]
CCOc1ccc(-c2cc(C)cn2-c2ccc(S(N)(=O)=O)cc2)cc1 [2-(4-ethoxyphenyl)-4-methyl-1-(4-sulfamoylphenyl)-pyrrole] | no increase in gastric or duodenal toxicity | 
CS(=O)(=O)CCNCc1ccc(-c2ccc3ncnc(Nc4ccc(OCc5cccc(F)c5)c(Cl)c4)c3c2)o1 [Lapatinib, N-(3-chloro-4-{[(3-fluorophenyl)methyl]oxy}phenyl)-6-[5-({[2-methylsulfonyl)ethyl]amino}methyl)-2-furanyl]-4-quinazolinamine bis(4-methylbenzenesulfonate) monohydrate, bis(4-methylbenzenesulfonate) …] |  | greater than 20 % of patients
